Measurements reported in patent US11519922B2, “Methods for identifying risk of chemotherapy-induced cardiotoxicity and targeted medical intervention” (Detroit R&D, Inc., priority 2018, dated 2022).

How the values were obtained:
[1] = biological target: T1, sEH in human kidney cells (ACHN) (Homo sapiens, UniProt P34913); assay: Inhibition of EET-dependent sEH activity in kidney cells; type: cell-based; details: EET 1 μM
T1 construct: recombinant sEH and human kidney cells (ACHN); endogenous in cells; host or cells: ACHN human kidney cells
T1 sequence (P34913 1-555): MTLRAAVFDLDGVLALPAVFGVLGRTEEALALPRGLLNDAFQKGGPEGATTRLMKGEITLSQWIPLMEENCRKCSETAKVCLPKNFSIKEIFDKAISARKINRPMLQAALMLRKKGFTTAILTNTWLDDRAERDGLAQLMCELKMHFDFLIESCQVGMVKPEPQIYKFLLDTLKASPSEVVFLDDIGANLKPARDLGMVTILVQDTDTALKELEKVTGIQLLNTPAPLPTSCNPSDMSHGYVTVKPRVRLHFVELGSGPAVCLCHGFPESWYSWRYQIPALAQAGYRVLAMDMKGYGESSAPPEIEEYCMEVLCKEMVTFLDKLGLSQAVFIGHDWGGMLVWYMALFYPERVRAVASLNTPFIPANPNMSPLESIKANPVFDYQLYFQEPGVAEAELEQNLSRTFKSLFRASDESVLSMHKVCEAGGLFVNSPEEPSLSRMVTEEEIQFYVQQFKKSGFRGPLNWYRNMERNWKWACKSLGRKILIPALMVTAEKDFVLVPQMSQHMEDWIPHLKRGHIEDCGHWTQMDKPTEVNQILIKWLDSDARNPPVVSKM

[2] = biological target: T2, recombinant sEH (Homo sapiens, UniProt P34913); assay: Inhibition of EET-dependent sEH activity, reconstituted system; type: biochemical
T2 sequence (P34913 1-555): T1 sequence (P34913 1-555)

[3] = biological target: T3, sEH enzyme in H9c2 cells (Rattus norvegicus, UniProt P80299); assay: 14,15-DHET formation from added 14,15-EET by H9c2 cells; type: cell-based
T3 construct: host or cells: H9c2 rat cardiomyocytes
T3 sequence (P80299 1-554): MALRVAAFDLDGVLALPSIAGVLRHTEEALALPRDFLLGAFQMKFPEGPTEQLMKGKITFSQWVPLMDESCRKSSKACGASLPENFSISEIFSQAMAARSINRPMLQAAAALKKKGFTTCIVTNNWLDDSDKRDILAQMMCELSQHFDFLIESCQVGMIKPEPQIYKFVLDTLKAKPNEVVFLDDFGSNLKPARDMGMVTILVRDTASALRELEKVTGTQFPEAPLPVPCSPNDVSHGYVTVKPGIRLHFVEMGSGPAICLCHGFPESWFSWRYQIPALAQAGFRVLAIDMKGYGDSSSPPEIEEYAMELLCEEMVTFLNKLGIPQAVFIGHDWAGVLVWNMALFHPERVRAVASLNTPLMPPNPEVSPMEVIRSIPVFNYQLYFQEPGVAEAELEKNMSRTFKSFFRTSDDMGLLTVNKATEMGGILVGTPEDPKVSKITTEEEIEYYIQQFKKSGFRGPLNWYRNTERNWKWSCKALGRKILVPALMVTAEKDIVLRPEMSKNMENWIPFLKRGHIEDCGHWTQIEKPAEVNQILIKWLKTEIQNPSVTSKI
Protocol: Expression of sEH enzyme in the cells was confirmed by detection of increased 14,15-DHET formation activity after 1 μM EET (substrate) treatment.
sEH enzyme converts 14,15-EET to 14,15-DHET, so differential levels of 14,15-DHET will reflect sEH activity. After addition of 1 μM 14,15-EET to H9c2 cells, ˜250 ng/ml 14,15-DHET was formed in cell media in 30 min and 4.5-fold higher level of 14,15-DHET was formed when the EET level was increased from 1 μM to 5 μM, verifying EET-dose-dependent 14,15-DHET formation by rat H9c2 cardiomyocyte cells.

| EET-dependent sEH activity [1] | EET-dependent sEH activity ([2]; EET 1 μM, reconstituted system with recombinant sEH) | inhibitor of the sEH activity (overall statement) ([2]; recombinant sEH and ACHN cells) | 14,15-DHET formed in cell media ([3]; 1 μM 14,15-EET, 30 min) [ng/mL] | higher level of 14,15-DHET formed ([3]; EET level increased from 1 μM to 5 μM) [fold] | SMILES |
| --- | --- | --- | --- | --- | --- |
| inhibited | inhibited | potent inhibitors |  |  | C=CCc1ccc(O)c(-c2ccc(O)c(CC=C)c2)c1 [Honokiol] |
|  |  |  | ~250 | 4.5 | CCCCCC1OC1C/C=C\C/C=C\C/C=C\CCCC(=O)O (centres unmarked) [14,15-EET] |
